# From patent publication US7445892B2, “Method of testing anticancer agent-sensitivity of tumor cells” (Eisai Co., Ltd., priority 2000, dated 2008)
# Columns and labels:
# HCT116-C9-C1 = experiment: Gene expression analysis using GeneChip in E7070-resistant strain C9-C1; type: cell-based, human; conditions: resistant strain C9-C1, 8 μM, 12 hours
# Procedure: E7070, or ER-35748 or ER-68487 represented by the structural formula shown below was added to the media of an E7070-susceptible strain HCT116-C9 and an E7070-resistant strain HCT116-C9-C1 at a concentration of 8 μM and the cells were cultured. Then, cells were recovered after 0, 3, 6 and 12 hours. Further, the cells were also cultured for 12 hours without adding the drug and recovered. Total RNA was extracted from these cells and subjected to the subsequent analyses. […] The stained GeneChip was scanned by using HP Argon Ion Laser Confocal Scanner (Hewlett Packard) to measure its fluorescence intensity. The fluorescence was measured at 570 nm by using an excitation light at 488 nm. The quantitative data analyses were all conducted by using GeneChip Software (Affymetrix). To quantify RNA, an average of “differences [(Perfect match hybridization signal)−(Mismatch signal)]” was obtained for each probe family. […] Two kinds of E7070-resistant strains (C9-C1 and another resistant strain (C9-C4) obtained in the same method as C9-C1) were treated with 8 μM of E7070 for 12 hours in the same manner as described above, and variations of the gene expression were analyzed by using GeneChip for the genes listed in Tables 1 and 2.
# HCT116-C9 = experiment: Gene expression analysis using DNA microarray (GeneChip Hu6800); type: cell-based, human
# Procedure: All cells were cultured in RPMI-1640 medium supplemented with 10% of fetal bovine serum, 100 units/ml of penicillin and 100 μg/ml of streptomycin at 37° C. under 5% CO2.
# E7070, or ER-35748 or ER-68487 represented by the structural formula shown below was added to the media of an E7070-susceptible strain HCT116-C9 and an E7070-resistant strain HCT116-C9-C1 at a concentration of 8 μM and the cells were cultured. Then, cells were recovered after 0, 3, 6 and 12 hours. Further, the cells were also cultured for 12 hours without adding the drug and recovered.
# Total RNA was extracted from these cells and subjected to the subsequent analyses. The RNA extracted from the cells cultured for 12 hours with the drug and the RNA from extracted the cells cultured for 12 hours without the drug were used for the gene expression analysis using a DNA microarray described in Example 2. HCT116-C9 was a substrain isolated from HCT116 derived from human colon cancer (American Type Culture Collection, Manassas, Va., U.S.A.), and HCT116-C9-C1 was an E7070-resistant substrain obtained by culturing this HCT116-C9 in the presence of E7070 with gradually increasing the E7070 concentration.
# Total RNA was extracted from the recovered cells by using TRIZOL Reagent (Life Technologies Oriental) according to the attached operation manual.
# Each RNA obtained in Example 1 was dissolved in 100 μl of sterilized water treated with diethyl pyrocarbonate (DEPC) and further purified by using RNeasy Column (QIAGEN), and double-stranded cDNA was synthesized by using SuperScript Choice System (Life Technologies Oriental) and a T7-d(T)24 primer.
# First, to 10 μg of RNA, 5 μM T7-d(T)24 primer, 1×First strand buffer, 10 mM DTT, 500 μM dNTP mix and 20 units/μl of SuperScript II Reverse Transcriptase were added and the mixture was allowed to react at 42° C. for 1 hour to synthesize single-stranded DNA. Subsequently, to the DNA, 1×Second strand buffer, 200 μM dNTP mix, 67 U/ml of DNA ligase, 270 U/ml of DNA polymerase I and 13 U/ml of RNase H were added and the mixture was allowed to react at 16° C. for 2 hours to synthesize double-stranded cDNA. Further, to the cDNA, 67 U/ml of T4 DNA polymerase I was added and the mixture was allowed to react at 16° C. for 5 minutes and then 10 μl of 0.5 M EDTA was added to terminate the reaction.
# The obtained cDNA was purified with phenol/chloroform, and a labeling reaction with biotinylated UTP and CTP was carried out by using RNA Transcript Labeling Kit (Enzo Diagnostics) according to the attached operation manual. The reaction product was purified with Rneasy Column and heated in 200 mM Tris/acetate buffer (pH 8.1), 150 mM magnesium acetate, 50 mM potassium acetate at 94° C. for 35 minutes to obtain fragment cRNA.
# The fragmented cRNA was hybridized with GeneChip Hu6800 (Affymetrix) in 100 mM MES, 1 M sodium salt, 20 mM EDTA and 0.01% Tween 20 at 45° C. for 16 hours. After the hybridization, the GeneChip was washed and stained according to the protocol EukGE-WS2 attached to Affymetrix Fluidics Station. For the staining, streptavidin-phycoerythrin and biotinylated goat anti-streptavidin antibody were used. The stained GeneChip was scanned by using HP Argon Ion Laser Confocal Scanner (Hewlett Packard) to measure its fluorescence intensity. The fluorescence was measured at 570 nm by using an excitation light at 488 nm.
# The quantitative data analyses were all conducted by using GeneChip Software (Affymetrix). To quantify RNA, an average of “differences [(Perfect match hybridization signal)−(Mismatch signal)]” was obtained for each probe family.
# E7070, or ER-35748 or ER-68487 was added to a medium for HCT116-C9 at a concentration of 8 μM and culture was performed. The results of analysis of RNA extracted from the cells at 12 hours by using GeneChip were compared with the results of RNA analysis for HCT116-C9 cells obtained in the same manner except for not adding the drug. […]
# [1] = HCT116-C9, 8 μM, 12 hours, compared with cells without drug, change of 1.8 times or more counted
smiles,measurement,setting,value
"NS(=O)(=O)c1ccc(S(=O)(=O)Nc2cccc3c(Cl)c[nH]c23)cc1 [E7070, N-(3-chloro-7-indolyl)-1,4-benzenedisulfonamide]",variations of the gene expression for the genes listed in Tables 1 and 2,HCT116-C9-C1,no gene that increased or decreased 1.8 times or more was observed
same,enhancement of expression of the genes listed in Table 3,"HCT116-C9; HCT116-C9, 8 μM for 12 hours",≥ 1.8 times
same,inhibition of expression of the genes listed in Table 4,"HCT116-C9; HCT116-C9, 8 μM for 12 hours",≥ 1.8 times
same,expression levels of the genes listed in Table 1,HCT116-C9; [1],increased
same,expression levels of the genes listed in Table 2,HCT116-C9; [1],decreased
